Converted amounts (≈) assume the structure as drawn.

Format in all cases: functional, cell-based
The test system of one assay is HT-29. In words: Cytotoxicity against Homo sapiens (human) HT-29 cells by MTT assay. For orientation: Tetrazolium assays rely on reduction of a dye to a coloured formazan, in cell work by metabolically active cells.
Another assay concerns SGC-7901. In words: Cytotoxicity against Homo sapiens (human) SGC7901 cells by MTT assay.
In a further assay the test system is HL-60. The assay is described as follows: Cytotoxicity against Homo sapiens (human) HL60 cells by MTT assay.

As for `CCCCCCCCCCCCCCCC(=O)OCCCCCCOC(=O)CCCCCCCCCCCCCCC`, the results for the IC50 in the assay with HT-29, in the assay on SGC-7901 and in the assay on HL-60 were 34.2 µg/mL (≈ 57.5 µM), 1.6 µg/mL (≈ 2.69 µM) and 0.49 µg/mL (≈ 0.824 µM), respectively.
The corresponding values for `O=c1[nH]cc(F)c(=O)[nH]1` [FLUOROURACIL] are 10.3 µg/mL (≈ 78.9 µM), 0.58 µg/mL (≈ 4.46 µM) and 25.4 µg/mL (≈ 195 µM).
In the case of `CCCCCCCCCCCCCCCC(=O)OCC(CO[C@@H]1O[C@H](CO)[C@@H](O)[C@H](O)[C@H]1O)OC(=O)CCCCCCCCCCCCCCC` (some centres undefined), the values for the IC50 with HT-29, in the assay on SGC-7901 and with HL-60 were 0.21 µg/mL (≈ 0.287 µM), 4.9 µg/mL (≈ 6.7 µM) and 27.7 µg/mL (≈ 37.9 µM), respectively.

Values taken from ChEMBL document CHEMBL3045702, “Cytotoxic lipid esters from Peucedanum ledebourielloides” (Med Chem Res, 2010).
